Structures can show the parent of a compound that is named as a salt.
Tests used:
Type in all cases: biochemical
JAK3 = molecular target: T1, JAK3 (Homo sapiens, UniProt P52333); assay: JAK tyrosine kinase inhibitory activity in the presence of 1 mM ATP (ELISA), JAK3
T1 construct: purchased Carna Biosciences, Inc
T1 sequence (P52333 1-1124): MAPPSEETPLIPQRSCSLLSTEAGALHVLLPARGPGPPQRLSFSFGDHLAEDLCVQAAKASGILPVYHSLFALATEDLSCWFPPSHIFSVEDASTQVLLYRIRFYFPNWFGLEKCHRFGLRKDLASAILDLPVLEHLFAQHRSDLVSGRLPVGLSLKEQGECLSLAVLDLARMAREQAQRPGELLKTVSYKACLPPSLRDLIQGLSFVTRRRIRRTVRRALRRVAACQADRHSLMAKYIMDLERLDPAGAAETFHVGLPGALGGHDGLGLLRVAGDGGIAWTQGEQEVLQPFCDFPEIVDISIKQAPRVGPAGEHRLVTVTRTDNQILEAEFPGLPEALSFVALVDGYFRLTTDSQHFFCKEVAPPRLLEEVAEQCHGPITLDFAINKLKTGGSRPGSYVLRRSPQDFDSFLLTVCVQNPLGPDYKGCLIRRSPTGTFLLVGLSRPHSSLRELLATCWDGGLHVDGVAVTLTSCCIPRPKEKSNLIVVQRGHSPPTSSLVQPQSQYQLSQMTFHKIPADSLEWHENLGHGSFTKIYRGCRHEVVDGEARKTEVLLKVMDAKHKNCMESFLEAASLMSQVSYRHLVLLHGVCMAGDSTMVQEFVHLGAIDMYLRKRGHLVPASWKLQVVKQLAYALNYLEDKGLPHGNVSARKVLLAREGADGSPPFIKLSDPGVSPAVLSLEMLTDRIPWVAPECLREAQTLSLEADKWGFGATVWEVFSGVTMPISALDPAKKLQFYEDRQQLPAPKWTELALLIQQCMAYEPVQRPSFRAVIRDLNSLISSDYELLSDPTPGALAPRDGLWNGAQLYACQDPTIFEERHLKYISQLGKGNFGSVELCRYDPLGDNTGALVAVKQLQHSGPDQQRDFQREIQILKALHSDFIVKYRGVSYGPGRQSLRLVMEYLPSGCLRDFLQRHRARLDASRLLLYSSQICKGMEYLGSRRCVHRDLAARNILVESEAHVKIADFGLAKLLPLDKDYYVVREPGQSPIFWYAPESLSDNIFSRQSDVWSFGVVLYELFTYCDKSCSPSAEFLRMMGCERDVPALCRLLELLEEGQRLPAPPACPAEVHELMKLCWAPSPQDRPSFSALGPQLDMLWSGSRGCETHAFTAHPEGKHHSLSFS
Method in brief: (§1)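 Recombinant kinase (7.5 nM JAK1; 0.75 nM JAK2, JAK3 working dilutions) reacted 1 h at 30 °C with 1 mM ATP in Tris-HCl pH 7.5, Tween-20, DTT, on streptavidin plates. Phosphotyrosine detected by HRP anti-pTyr antibody ELISA, TMB absorbance at 450 nm; duplicate wells, DMSO as negative control.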

JAK1 = molecular target: T2, JAK1 (Homo sapiens, UniProt P23458); assay: JAK tyrosine kinase inhibitory activity in the presence of 1 mM ATP (ELISA), JAK1
T2 construct: purchased Carna Biosciences, Inc
Method in brief: as §1

JAK2 = molecular target: T3, JAK2 (Homo sapiens, UniProt O60674); assay: JAK tyrosine kinase inhibitory activity in the presence of 1 mM ATP (ELISA), JAK2
T3 construct: purchased Carna Biosciences, Inc
Method in brief: as §1

T2 sequence (P23458 whole entry): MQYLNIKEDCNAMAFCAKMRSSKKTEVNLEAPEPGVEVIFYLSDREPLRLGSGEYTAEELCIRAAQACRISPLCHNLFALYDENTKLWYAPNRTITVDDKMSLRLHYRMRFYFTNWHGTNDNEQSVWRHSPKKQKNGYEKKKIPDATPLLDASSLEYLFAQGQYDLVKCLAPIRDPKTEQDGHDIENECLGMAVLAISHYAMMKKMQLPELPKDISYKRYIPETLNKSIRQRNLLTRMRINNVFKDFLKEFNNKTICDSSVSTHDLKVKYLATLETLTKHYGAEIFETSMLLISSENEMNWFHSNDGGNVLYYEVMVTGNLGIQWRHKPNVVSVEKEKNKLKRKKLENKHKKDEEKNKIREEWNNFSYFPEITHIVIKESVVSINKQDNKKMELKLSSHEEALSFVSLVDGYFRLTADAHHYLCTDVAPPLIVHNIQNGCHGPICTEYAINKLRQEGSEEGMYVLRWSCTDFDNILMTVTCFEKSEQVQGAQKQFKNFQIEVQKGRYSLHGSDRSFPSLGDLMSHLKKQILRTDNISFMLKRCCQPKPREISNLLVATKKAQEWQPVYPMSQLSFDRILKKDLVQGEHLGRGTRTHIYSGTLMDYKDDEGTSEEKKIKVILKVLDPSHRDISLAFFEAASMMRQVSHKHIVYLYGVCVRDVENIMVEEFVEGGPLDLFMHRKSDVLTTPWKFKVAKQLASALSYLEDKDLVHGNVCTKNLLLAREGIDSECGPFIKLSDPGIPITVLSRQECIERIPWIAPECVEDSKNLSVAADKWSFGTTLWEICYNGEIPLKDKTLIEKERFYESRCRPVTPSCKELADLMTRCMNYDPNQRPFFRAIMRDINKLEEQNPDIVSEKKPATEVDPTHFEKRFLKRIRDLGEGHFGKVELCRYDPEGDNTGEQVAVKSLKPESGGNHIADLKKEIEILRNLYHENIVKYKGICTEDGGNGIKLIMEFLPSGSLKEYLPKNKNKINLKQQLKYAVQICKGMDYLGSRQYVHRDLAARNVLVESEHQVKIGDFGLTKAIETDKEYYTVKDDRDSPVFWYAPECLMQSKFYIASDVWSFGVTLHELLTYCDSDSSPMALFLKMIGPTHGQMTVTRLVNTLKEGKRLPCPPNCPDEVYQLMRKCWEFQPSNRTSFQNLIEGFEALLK
T3 sequence (O60674 whole entry): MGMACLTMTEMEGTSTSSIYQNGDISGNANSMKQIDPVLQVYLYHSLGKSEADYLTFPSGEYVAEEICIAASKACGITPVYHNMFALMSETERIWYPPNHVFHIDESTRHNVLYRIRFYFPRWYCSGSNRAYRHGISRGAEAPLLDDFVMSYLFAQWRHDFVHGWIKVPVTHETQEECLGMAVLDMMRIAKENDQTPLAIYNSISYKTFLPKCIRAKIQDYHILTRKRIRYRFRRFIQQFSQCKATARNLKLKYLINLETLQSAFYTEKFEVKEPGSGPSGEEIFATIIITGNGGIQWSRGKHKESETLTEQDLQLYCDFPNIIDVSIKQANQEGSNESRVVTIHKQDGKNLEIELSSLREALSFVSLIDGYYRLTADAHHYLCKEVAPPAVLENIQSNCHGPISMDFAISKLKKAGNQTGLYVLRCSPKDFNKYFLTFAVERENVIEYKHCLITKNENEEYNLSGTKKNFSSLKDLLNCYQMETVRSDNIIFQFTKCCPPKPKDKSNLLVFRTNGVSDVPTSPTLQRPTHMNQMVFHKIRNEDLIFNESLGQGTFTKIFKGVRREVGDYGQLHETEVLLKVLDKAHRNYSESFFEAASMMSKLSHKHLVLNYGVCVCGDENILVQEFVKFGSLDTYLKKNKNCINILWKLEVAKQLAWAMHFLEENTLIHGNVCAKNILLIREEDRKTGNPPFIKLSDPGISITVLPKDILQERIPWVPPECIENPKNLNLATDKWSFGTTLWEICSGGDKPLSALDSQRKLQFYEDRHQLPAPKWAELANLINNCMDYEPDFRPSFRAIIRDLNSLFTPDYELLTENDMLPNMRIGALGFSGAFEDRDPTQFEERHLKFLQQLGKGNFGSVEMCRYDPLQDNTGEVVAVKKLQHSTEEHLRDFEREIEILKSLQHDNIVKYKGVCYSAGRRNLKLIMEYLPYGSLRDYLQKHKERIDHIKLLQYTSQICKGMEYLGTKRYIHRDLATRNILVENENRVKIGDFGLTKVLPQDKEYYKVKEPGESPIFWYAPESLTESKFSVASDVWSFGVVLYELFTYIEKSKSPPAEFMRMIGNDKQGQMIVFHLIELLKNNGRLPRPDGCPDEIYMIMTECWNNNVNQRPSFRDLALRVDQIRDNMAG

Structure (SMILES) | IC50 (JAK3) [nM] | IC50 (JAK1) [nM] | IC50 (JAK2) [nM]
COC(=O)NC1CCN(C(=O)c2cc(NC3CCNCC3)nc(-c3cnn4ccsc34)n2)CC1 [Example 143, Methyl (1-{[6-(piperidin-4-ylamino)-2-(pyrazolo[5,1-b][1,3]thiazol-7-yl)pyrimidin-4-yl]carbonyl}piperidin-4 yl)carbamate dihydrochloride] | > 10000 | 1900 | > 10000
CCCC(=O)N1CC[C@@H](Nc2cc(C(=O)N3CCC(NC(=O)OC)CC3)nc(-c3cnn4ccsc34)n2)C1 [Example 207, Methyl 1-[6-[(3R)-1-butanoylpyrrolidin-3-yl]amino-2-(pyrazolo[5,1-b][1,3]thiazol-7-yl)pyrimidine-4-carbonyl]piperidin-4-ylcarbamate] | > 10000 | 410 | > 10000
CCC(=O)NC1CCN(C(=O)c2cc(NCC(C)(C)OC)nc(-c3cnn4ccsc34)n2)CC1 [Example 119, N-[1-({6-[(2-Methoxy-2-methylpropyl)amino]-2-(pyrazolo[5,1-b][1,3]thiazol-7-yl)pyrimidin-4-yl}carbonyl)piperidin-4-yl]propanamide] | > 10000 | 670 | 4200
CC(C)(CO)Nc1cc(C(=O)N2CCC(NC(=O)C3CC3)CC2)nc(-c2cnn3ccsc23)n1 [Example 48, N-[1-({6-[(1-Hydroxy-2-methylpropan-2-yl)amino]-2-(pyrazolo[5,1-b][1,3]thiazol-7-yl)pyrimidin-4-yl}carbonyl)piperidin-4-yl]cyclopropanecarboxamide] | > 10000 | 150 | > 10000
C[C@@H](Nc1cc(C(=O)N2CCC(NC(=O)OCC(F)(F)F)CC2)nc(-c2cnn3ccsc23)n1)C1CC1 [Example 103, 2,2,2-Trifluoroethyl (1-{[6-{[(1R)-1-cyclopropylethyl]amino}-2-(pyrazolo[5,1-b][1,3]thiazol 7-yl)pyrimidin-4-yl]carbonyl}piperidin-4-yl)carbamate] | 5900 | 140 | 2400
COC(=O)NC1CCN(C(=O)c2cc(NC3CCN(C(=O)OC(C)(C)C)CC3)nc(-c3cnn4ccsc34)n2)CC1 [Example 142, tert-Butyl 4-{[6-({4-[(methoxycarbonyl)amino]piperidin-1-yl}carbonyl)-2-(pyrazolo[5,1-b][1,3]thiazol-7-yl)pyrimidin-4-yl]amino}piperidine-1-carboxylate] | > 10000 | 1200 | > 10000
COC(=O)NC1CCN(C(=O)c2cc(NC3CCCC3)nc(-c3cnn4ccsc34)n2)CC1 [Example 179, Methyl 1-[6-(cyclopentylamino)-2-(pyrazolo[5,1-b][1,3]thiazol-7-yl)pyrimidine-4-carbonyl]piperidin-4-ylcarbamate] | > 10000 | 320 | > 10000
CC1(Nc2cc(C(=O)N3CCC(NC(=O)C4CC4)CC3)nc(-c3cnn4ccsc34)n2)CC1 [Example 37, N-[1-({6-[(1-Methylcyclopropyl)amino] 2 (pyrazolo[5,1-b][1,3]thiazol-7-yl)pyrimidin-4-yl}carbonyl)piperidin-4-yl]cyclopropanecarboxamide] | > 10000 | 240 | 1600
COC(=O)NC1CCN(C(=O)c2cc(Oc3ccccc3)nc(-c3cnn4ccsc34)n2)CC1 [Example 141, Methyl (1-{[6-phenoxy-2-(pyrazolo[5,1-b][1,3]thiazol-7-yl)pyrimidin-4-yl]carbonyl}piperidin-4-yl)carbamate] | > 10000 | 1100 | > 10000
CCC(CC)CNc1cc(C(=O)N2CCC(NC(=O)C3CC3)CC2)nc(-c2cnn3ccsc23)n1 [Example 110, N-[1-({6-[(2-Ethylbutyl)amino]-2-(pyrazolo[5,1-b][1,3]thiazol-7-yl)pyrimidin-4-yl}carbonyl)piperidin-4-yl]cyclopropanecarboxamide] | > 10000 | 78 | 880

Next, values leading:

IC50 (JAK3) [nM] | IC50 (JAK1) [nM] | IC50 (JAK2) [nM] | Structure (SMILES)
1900 | 25 | 680 | C[C@H](Nc1cc(C(=O)N2CCC(NS(=O)(=O)C3CC3)CC2)nc(-c2cnn3ccsc23)n1)C1CC1 [Example 67, N-(1-{[6-{[(1S)-1-Cyclopropylethyl]amino}-2-(pyrazolo[5,1-b][1,3]thiazol-7-yl)pyrimidin-4-yl]carbonyl}piperidin-4-yl)cyclopropanesulfonamide]
2800 | 240 | 1800 | CC(=O)NC1CCN(C(=O)c2nc(-c3cnn4ccsc34)nc(N[C@@H](C)C(C)(C)C)c2C)CC1 [Example 6, N-(1-{[6-{[(2S)-3,3-Dimethylbutan-2-yl]amino}-5-methyl-2-(pyrazolo[5,1-b][1,3]thiazol-7-yl)pyrimidin-4-yl]carbonyl}piperidin-4-yl)acetamide]
5400 | 1900 | 2200 | CC(C)(C)CNc1cc(C(=O)N2CCC(O)CC2)nc(-c2cnn3ccsc23)n1 [Example 94, {6-[(2,2-Dimethylpropyl)amino]-2-(pyrazolo[5,1-b][1,3]thiazol-7-yl)pyrimidin-4-yl}(4-hydroxypiperidin-1-yl)methanone]
1400 | 270 | 1200 | COC(=O)NC1CCN(C(=O)c2nc(-c3cnn4ccsc34)nc(N[C@@H](C)C3CC3)c2OC)CC1 [Example 145, Methyl (1-{[6-{[(1S)-1-cyclopropylethyl]amino} 5 methoxy-2-(pyrazolo[5,1-b][1,3]thiazol-7-yl)pyrimidin-4-yl]carbonyl}piperidin-4-yl)carbamate]
3200 | 1200 | > 10000 | O=C(NC1CCN(C(=O)c2cc(N[C@H]3CC[C@H](O)CC3)nc(-c3cnn4ccsc34)n2)CC1)C1CC1 [Example 168, N-(1-6-[(trans-4-hydroxycyclohexyl)amino]-2-(pyrazolo[5,1-b][1,3]thiazol-7-yl)pyrimidine-4-carbonylpiperidin-4-yl)cyclopropanecarboxamide]
1200 | 87 | > 10000 | C[C@@H](Nc1cc(C(=O)N2CCC(NC(=O)c3ccccc3)CC2)nc(-c2cnn3ccsc23)n1)C(C)(C)C [Example 183, N-1-[6-[(2R)-3,3-dimethylbutan-2-yl]amino-2-(pyrazolo[5,1-b][1,3]thiazol-7-yl)pyrimidine-4-carbonyl]piperidin-4-ylbenzamide]
5800 | 230 | 5100 | C[C@@H](COC(F)F)Nc1cc(C(=O)N2CCC(NC(=O)C3CC3)CC2)nc(-c2cnn3ccsc23)n1 [Example 17, N-(1-{[6-{[(2S)-1-(Difluoromethoxy)propan-2-yl]amino}-2-(pyrazolo[5,1-b][1,3]thiazol-7-yl)pyrimidin-4-yl]carbonyl}piperidin-4-yl)cyclopropanecarboxamide]
2500 | 150 | 2000 | C[C@H](Nc1cc(C(=O)N2CCC(Nc3nccs3)CC2)nc(-c2cnn3ccsc23)n1)C1CC1 [Example 50, [6-{[(1S)-1-Cyclopropylethyl]amino}-2-(pyrazolo[5,1-b][1,3]thiazol-7-yl)pyrimidin-4-yl][4-(1,3-thiazol-2-ylamino)piperidin-1-yl]methanone]
